# Tests used:
# KARs = biological target: T1, KARs (Mus musculus, UniProt P39087+Q61626); assay type: cell-based; conditions: WT cultured slices; SYM2081 10 μM, UBP310 5 μM; Sr2+ conditions, 5 μM gabazine, 40 μM D-APV
# T1 construct: from tissue; host or cells: dentate granule cells in pilocarpine-treated organotypic hippocampal/entorhinal slice cultures from WT mice (FVB/N)
# Description: Hippocampal/entorhinal cortex slices (350 μm) were prepared from pre-genotyped GluK2−/− and WT mice (P9-10, FVB/N background) using a McIlwain tissue chopper. Slices were placed on mesh inserts (Millipore # PICMORG50) inside culture dishes containing 1 ml of the following medium: MEM 50%, HS 25%, HBSS 25%, HEPES 15 mM glucose 6.5 mg/ml and insulin 0.1 mg/ml. Culture medium was changed every 2-3 days and slices maintained in an incubator at 37° C./5% CO2. Pilocarpine (0.5 μM) was added to the medium at 5 D.I.V and removed at 7 D.I.V; slices were utilized for experiments from 9 D.I.V.
# Cultured or acute slices were individually transferred to a recording chamber maintained at 30-32° C. and continuously perfused (2 ml/min) with oxygenated normal or adapted ACSF containing 5 μM gabazine. Local field potentials were made in the granule cell layer of the DG with glass electrodes (2-3 MΩ; filled with normal ACSF) using a DAM-80 amplifier (low filter, 1 Hz; […], 3 KHz; World Precision Instruments, Sarasota, Fla.). For evoked synaptic transmission, electrical stimulation was performed with a bipolar NiCh electrode (#762000, AM systems). […] Signals were analyzed off-line using Clampfit 9.2 (PClamp) and MiniAnalysis 6.0.1 (Synaptosoft, Decatur, Ga.). In organotypic slices, spontaneous EPSCs were recorded at the reversal potential for GABAergic currents (Vh=−70 mV). To characterize the nature and kinetic properties of fast and slow events, miniature EPSCs (mEPSCs) evoked in Sr2+ conditions (external Ca2+ was substituted with 1.2 mM Sr2+) were recorded in DGCs from GluK2−/− and WT slices. Electrical stimulation was made in the molecular layer in the continued presence of 5 μM gabazine and 40 μM D-APV; asynchronous mEPSCs were measured during the 300 ms period after the stimulus artifact. […] Filtered traces were also analyzed by Fourier analysis (Hamming) using Clampfit 9.2. In acute hippocampal slices, intensity of antidromically-evoked bursts was quantified using coastline index (Epsztein et al., 2005).
# [1] = system: pilocarpine-status epilepticus model of chronic TLE; experiment: Interictal spikes, in vivo local field potential recordings in DG of anesthetized pilocarpine-treated mice; design: species or system mouse
# Description: All experiments were approved by the Institut National de la Santé et de la Recherche Médicale animal care and use committee of May 29, 2001 (2001-464) and the European community council directive of Nov. 24, 1986 (86/609/EEC). Mice (FVB/N background) had access to food and water ad libitum and were housed under a 12 h light/dark cycle at 22-24° C. Male GluK2−/− and WT mice (P60-80) were given scopolamine (1 mg/kg) subcutaneously (s.c.) 15 minutes prior to s.c. administration of pilocarpine (200-600 mg/kg). A ramp protocol was used whereby animals were given an initial dose of 200 mg/kg followed by half-doses every 30 minutes until seizures appeared. Both WT and GluK2−/− mice typically experienced at least two seizures prior to entering status epilepticus (SE). Diazepam (10 mg/kg) was administered 45 minutes after onset of SE.
# Naïve wildtype (WT) and pilocarpine-treated WT or GluK2−/− mice (5-6 months old) were anaesthetized with xylazine 13 mg/kg/ketamine 66 mg/kg and placed in a stereotaxic frame (supplemental dosing was administered as required). Body temperature was maintained using a heating pad. The scalp was removed and a small bone window was drilled above the hippocampus (2.1 mm posterior to bregma and 1.4 mm lateral to midline over the right hemisphere). For local field potentials recordings performed in anaesthetized mice, a glass electrode ([…]) filled with Ringer solution (135 mM NaCl, 5.4 mM KCl, 1 mM MgCl2, 1.8 mM CaCl2, 5 mM HEPES) was inserted into the DG (depth, 1650 μm). Recordings were performed using a DAM-80 amplifier (low filter, 1 Hz; high filter, 3 KHz; World Precision Instruments, Sarasota, Fla.). UBP310 or vehicle (saline/10% DMSO) was subsequently injected intraperitoneally (i.p.). During recordings and subsequent analysis, the experimenter was blind to the genotype. For intrahippocampal electroencephalographic (EEG) recordings performed in freely-moving animal a stainless steel electrode (Plastic one, Roanoke, Va.) was inserted into the DG under anesthesia (see above). After a 4 day recovery, EEG (amplified (1000×), filtered at 0.16-97 Hz pass, acquired at 500 Hz) was monitored using a telemetric system (Data Sciences International, St. Paul, Minn.) for 4 days, 24 h per day. Intrahippocampal EEG traces represented the difference in potential between the electrode inserted into the DG and an electrode positioned above the cerebellum; food and water were given ad libitum. UBP310 or vehicle (saline/10% DMSO) was injected intraperitoneally twice a day.
# In TLE, interictal spikes (ISs) represent one of the best documented biomarkers of epilepsy in patient and animal models (Staley et al., 2005). […]
# [2] = system: dentate gyrus of organotypic slices; experiment: Spontaneous interictal-like activity, extracellular field recordings in pilocarpine-treated organotypic hippocampal slice cultures; assay type: cell-based, mouse; conditions: P=0.902, n=6
# [3] = biological target: homomeric GluK2 receptors (Homo sapiens, UniProt Q13002); conditions: cited from earlier work
# Chain of homomeric GluK2 receptors (Q13002 32-908): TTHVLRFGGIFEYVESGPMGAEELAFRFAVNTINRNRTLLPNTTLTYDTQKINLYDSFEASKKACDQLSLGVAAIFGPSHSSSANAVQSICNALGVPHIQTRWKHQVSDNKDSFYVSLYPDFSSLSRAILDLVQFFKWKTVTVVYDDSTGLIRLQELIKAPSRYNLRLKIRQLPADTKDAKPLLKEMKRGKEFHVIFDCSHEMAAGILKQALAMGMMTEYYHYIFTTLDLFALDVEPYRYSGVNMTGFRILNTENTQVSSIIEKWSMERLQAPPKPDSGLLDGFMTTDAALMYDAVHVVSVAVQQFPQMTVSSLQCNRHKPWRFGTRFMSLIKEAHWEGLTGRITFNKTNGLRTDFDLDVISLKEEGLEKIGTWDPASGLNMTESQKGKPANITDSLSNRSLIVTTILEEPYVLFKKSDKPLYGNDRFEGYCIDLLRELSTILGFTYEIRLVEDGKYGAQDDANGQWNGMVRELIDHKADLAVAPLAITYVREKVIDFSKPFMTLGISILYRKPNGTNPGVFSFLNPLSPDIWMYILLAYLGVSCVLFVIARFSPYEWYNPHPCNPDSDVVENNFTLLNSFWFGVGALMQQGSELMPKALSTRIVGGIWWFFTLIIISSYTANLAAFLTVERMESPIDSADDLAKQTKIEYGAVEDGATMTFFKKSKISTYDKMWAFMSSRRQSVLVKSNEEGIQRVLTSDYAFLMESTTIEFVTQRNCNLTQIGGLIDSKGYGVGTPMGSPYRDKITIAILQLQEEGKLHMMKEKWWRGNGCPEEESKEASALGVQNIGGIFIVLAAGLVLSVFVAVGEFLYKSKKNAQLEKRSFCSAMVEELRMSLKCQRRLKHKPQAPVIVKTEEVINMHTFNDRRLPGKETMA
# T1 sequence (P39087 32-908): as the sequence (Q13002 32-908) above, with A377S, A463V counted along it
# T1 sequence (Q61626 15-979): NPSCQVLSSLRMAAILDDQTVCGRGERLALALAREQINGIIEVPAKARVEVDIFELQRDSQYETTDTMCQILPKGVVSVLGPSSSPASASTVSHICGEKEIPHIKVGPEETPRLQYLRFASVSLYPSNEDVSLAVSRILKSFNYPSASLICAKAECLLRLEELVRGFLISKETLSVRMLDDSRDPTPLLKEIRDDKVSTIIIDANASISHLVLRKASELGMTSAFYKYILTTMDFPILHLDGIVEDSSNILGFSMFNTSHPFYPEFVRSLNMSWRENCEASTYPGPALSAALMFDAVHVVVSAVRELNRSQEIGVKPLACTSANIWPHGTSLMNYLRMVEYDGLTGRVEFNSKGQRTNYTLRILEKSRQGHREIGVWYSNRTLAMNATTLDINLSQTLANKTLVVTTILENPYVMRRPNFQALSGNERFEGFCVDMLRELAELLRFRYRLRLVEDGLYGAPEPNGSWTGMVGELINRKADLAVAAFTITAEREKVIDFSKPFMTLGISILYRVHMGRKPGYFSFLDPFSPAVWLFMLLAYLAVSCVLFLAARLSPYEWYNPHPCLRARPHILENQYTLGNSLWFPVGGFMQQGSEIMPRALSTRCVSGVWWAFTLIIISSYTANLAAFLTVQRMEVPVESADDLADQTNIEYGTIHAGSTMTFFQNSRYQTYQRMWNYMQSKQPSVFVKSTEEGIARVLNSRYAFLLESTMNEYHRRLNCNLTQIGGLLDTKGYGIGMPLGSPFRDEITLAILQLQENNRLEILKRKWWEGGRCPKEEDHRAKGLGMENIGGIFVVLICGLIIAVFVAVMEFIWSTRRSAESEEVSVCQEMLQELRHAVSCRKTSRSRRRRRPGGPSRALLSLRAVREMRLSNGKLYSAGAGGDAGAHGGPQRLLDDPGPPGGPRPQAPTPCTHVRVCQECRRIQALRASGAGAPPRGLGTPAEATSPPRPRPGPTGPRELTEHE
smiles,measurement,setting,value
Cc1cn(C[C@H](N)C(=O)O)c(=O)n(Cc2ccsc2C(=O)O)c1=O [UBP310],effect on KAR-mediated mEPSCs,KARs,abolished
same,reduction of number of interictal spikes (ISs),"[1]; 60 mg/kg intraperitoneal, WT epileptic mice, anesthetized",64%
same,change in IS amplitude,"[1]; 60 mg/kg intraperitoneal, WT epileptic mice, data not shown",no change in amplitude
same,effect on number of ISs in GluK2-/- mice,"[1]; 60 mg/kg, GluK2-/- mice, P=0.497",no effect
same,effect on IS number at dose reduced by 10 times,"[1]; injected dose reduced by 10 times from 60 mg/kg, P=0.548",no significant effect
same,reduction of frequency of interictal-like activity in GluK1-/- versus WT mice,[2],similarly effective
same,inhibition of homomeric GluK2 receptors,[3],not homomeric GluK2 receptors
